Measurements as given in ChEMBL document CHEMBL3232945 (Eur J Med Chem, 2014).

Assays:
[1] = test system: Rattus norvegicus; experiment: Toxicity in […] normotensive Wistar rat assessed as mean arterial pressure at 10 mg/kg, ip after 45 mins (reference value: 94.83 +/- 0.943 mmHg); format: organism-based, Artery; set-up: dose 10 mg/kg, route intraperitoneal; settings: in vivo, 0.75 h
[2] = test system: Rattus norvegicus; experiment: Toxicity in […] normotensive Wistar rat assessed as mean arterial pressure at 10 mg/kg, ip after 15 mins (reference value: 93.81 +/- 1.543 mmHg); format: organism-based, Artery; set-up: dose 10 mg/kg, route intraperitoneal; settings: in vivo, 0.25 h
[3] = test system: Rattus norvegicus; experiment: Antihypertensive activity in Wistar rat assessed as mean arterial pressure at 10 mg/kg, ip measured immediately at 30 mins (reference value: 194.72 +/- 1.002 mmHg); format: functional, Artery; settings: route intraperitoneal
[4] = test system: Rattus norvegicus; experiment: Antihypertensive activity in Wistar rat assessed as mean arterial pressure at 10 mg/kg, ip measured immediately at 60 mins (reference value: 195.11 +/- 0.531 mmHg); format: functional, Artery; settings: route intraperitoneal
[5] = test system: Rattus norvegicus; experiment: Antihypertensive activity in Wistar rat assessed as mean arterial pressure at 10 mg/kg, ip measured immediately at 0 min (reference value: 194.08 +/- 1.962 mmHg); format: functional, Artery; settings: route intraperitoneal
[6] = test system: Rattus norvegicus; experiment: Toxicity in […] normotensive Wistar rat assessed as mean arterial pressure at 10 mg/kg, ip measured immediately at 0 min (reference value: 94.21 +/- 2.065 mmHg); format: organism-based, Artery; set-up: dose 10 mg/kg, route intraperitoneal; settings: in vivo, 0 h
[7] = test system: Rattus norvegicus; experiment: Antihypertensive activity in Wistar rat assessed as mean arterial pressure at 10 mg/kg, ip measured immediately at 45 mins (reference value: 193.96 +/- 0.865 mmHg); format: functional, Artery; settings: route intraperitoneal
[8] = test system: Rattus norvegicus; experiment: Antihypertensive activity in Wistar rat assessed as mean arterial pressure at 10 mg/kg, ip measured immediately at 15 mins (reference value: 195.68 +/- 1.623 mmHg); format: functional, Artery; settings: route intraperitoneal
[9] = test system: Rattus norvegicus; experiment: Toxicity in […] normotensive Wistar rat assessed as mean arterial pressure at 10 mg/kg, ip after 30 mins (reference value: 94.68 +/- 1.213 mmHg); format: organism-based, Artery; set-up: dose 10 mg/kg, route intraperitoneal; settings: in vivo, 0.5 h
[10] = test system: Rattus norvegicus; experiment: Toxicity in […] normotensive Wistar rat assessed as mean arterial pressure at 10 mg/kg, ip after 60 mins (reference value: 95.07 +/- 1.973 mmHg); format: organism-based, Artery; set-up: dose 10 mg/kg, route intraperitoneal; settings: in vivo, 1 h
[11] = test system: Rattus norvegicus; experiment: Toxicity in anaesthetized-Wistar rat assessed as Q-T ECG interval at 15 mg/kg, ip after 60 mins (reference value: 79.7 +/- 0.965 ms); format: organism-based; set-up: dose 15 mg/kg, route intraperitoneal; settings: in vivo, 1 h
[12] = test system: Rattus norvegicus; experiment: Toxicity in anesthetized-normotensive Wistar rat assessed as heart rate at 15 mg/kg, ip after 15 mins (reference value: 313.93 +/- 9.912 bpm); format: organism-based; set-up: dose 15 mg/kg, route intraperitoneal; settings: in vivo, 0.25 h
[13] = test system: Rattus norvegicus; experiment: Antiarrhythmic activity in barium chloride-induced Wistar rat assessed as increase in appearance time of arrhythmia at 15 mg/kg, ip administered 60 mins before barium chloride challenge (reference value: 129.4 +/- 4.373 sec); format: functional, Heart; settings: route intraperitoneal
[14] = test system: Rattus norvegicus; experiment: Toxicity in anaesthetized-Wistar rat assessed as Q-T ECG interval at 15 mg/kg, ip after 45 mins (reference value: 78.8 +/- 0.927 ms); format: organism-based; set-up: dose 15 mg/kg, route intraperitoneal; settings: in vivo, 0.75 h
[15] = test system: Rattus norvegicus; experiment: Toxicity in anesthetized-normotensive Wistar rat assessed as heart rate at 15 mg/kg, ip after 30 mins (reference value: 317.68 +/- 7.631 bpm); format: organism-based; set-up: dose 15 mg/kg, route intraperitoneal; settings: in vivo, 0.5 h
[16] = test system: Rattus norvegicus; experiment: Antiarrhythmic activity in barium chloride-induced Wistar rat assessed as increase in mortality time at 15 mg/kg, ip administered 60 mins before barium chloride challenge (reference value: 682.8 +/- 9.656 secs); format: functional, Heart; settings: route intraperitoneal
[17] = test system: Rattus norvegicus; experiment: Toxicity in anesthetized-normotensive Wistar rat assessed as heart rate at 15 mg/kg, ip measured immediately at 0 min (reference value: 316.62 +/- 9.643 bpm); format: organism-based; set-up: dose 15 mg/kg, route intraperitoneal; settings: in vivo, 0 h
[18] = test system: Rattus norvegicus; experiment: Toxicity in anesthetized-normotensive Wistar rat assessed as heart rate at 15 mg/kg, ip after 60 mins (reference value: 314.96 +/- 9.442 bpm); format: organism-based; set-up: dose 15 mg/kg, route intraperitoneal; settings: in vivo, 1 h

Compound: CC(C)NCC(O)COc1cccc2ccccc12 (stereo not drawn) [PROPRANOLOL]
- Activity [1]: 65.87 mmHg
- Activity [2]: 79.43 mmHg
- Activity [3]: 148.53 mmHg
- Activity [4]: 152.26 mmHg
- Activity [5]: 195.12 mmHg
- Activity [6]: 92.56 mmHg
- Activity [7]: 120.32 mmHg
- Activity [8]: 171.73 mmHg
- Activity [9]: 62.96 mmHg
- Activity [10]: 70.21 mmHg

Compound: C=C[C@H]1CN2CC[C@H]1C[C@@H]2[C@@H](O)c1ccnc2ccc(OC)cc12 [QUINIDINE]
- Activity [11]: 90.6 ms
- Activity [12]: 285.16 bpm
- Time [13]: 394.8 s
- Activity [14]: 91.3 min
- Activity [15]: 246.18 bpm
- Time [16]: 1281.8 s
- Activity [17]: 311.8 bpm
- Activity [18]: 286.32 bpm
